In ChEMBL document CHEMBL1153884, “Oligonucleotide-polyamine conjugates: influence of length and position of 2'-attached polyamines on duplex stability and antisense effect” (2009) one finds Tm data, which are given here for 6 molecules.

Assay [1] has as its system Nucleic Acid. Briefly: Duplex stability of RNA counter strand assessed as melting temperature. The format is nucleic-acid assay.
The subject of assay [2] is Nucleic Acid. Briefly: Duplex stability of DNA counter strand assessed as melting temperature. The format is nucleic-acid assay.

By Tm is commonly meant the temperature at the midpoint of the melting transition.

Take `Cc1cn([C@H]2C[C@H](OP(=O)(O)OC[C@H]3O[C@@H](n4cnc5c(N)ncnc54)[C@H](O)[C@@H]3OP(=O)(O)OC[C@H]3O[C@@H](n4ccc(N)nc4=O)[C@H](O)[C@@H]3OP(=O)(O)OC[C@H]3O[C@@H](n4ccc(N)nc4=O)[C@H](O)[C@@H]3OP(=O)(O)OC[C@H]3O[C@@H](n4cnc5c(=O)[nH]c(N)nc54)[C@H](O)[C@@H]3OP(=O)(O)OC[C@H]3O[C@@H](n4ccc(N)nc4=O)[C@H](O)[C@@H]3OP(=O)(O)OC[C@H]3O[C@@H](n4cnc5c(=O)[nH]c(N)nc54)[C@H](O)[C@@H]3OP(=O)(O)OC[C@H]3O[C@@H](n4ccc(=O)[nH]c4=O)[C@H](NCCCNCCCCNCCCN)[C@@H]3OP(=O)(O)OC[C@H]3O[C@@H](n4cnc5c(=O)[nH]c(N)nc54)[C@H](O)[C@@H]3OP(=O)(O)OC[C@H]3O[C@@H](n4ccc(N)nc4=O)[C@H](O)[C@@H]3OP(=O)(O)OC[C@H]3O[C@@H](n4cnc5c(=O)[nH]c(N)nc54)[C@H](O)[C@@H]3OP(=O)(O)OC[C@H]3O[C@@H](n4cnc5c(N)ncnc54)[C@H](O)[C@@H]3OP(=O)(O)OC[C@H]3O[C@@H](n4ccc(N)nc4=O)[C@H](O)[C@@H]3OP(=O)(O)OC[C@H]3O[C@@H](n4ccc(N)nc4=O)[C@H](O)[C@@H]3OP(=O)(O)OC[C@H]3O[C@@H](n4ccc(N)nc4=O)[C@H](O)[C@@H]3OP(=O)(O)OC[C@H]3O[C@@H](n4cc(C)c(=O)[nH]c4=O)C[C@@H]3OP(=O)(O)OC[C@H]3O[C@@H](n4ccc(N)nc4=O)[C@H](O)[C@@H]3OP(=O)(O)OC[C@H]3O[C@@H](n4ccc(=O)[nH]c4=O)[C@H](NCCCNCCCCNCCCN)[C@@H]3O)[C@@H](CO)O2)c(=O)[nH]c1=O`: the Tm with Nucleic Acid [1] came to 57.8 °C; in the assay with Nucleic Acid [2] it was 74.5 °C.
In the same order, the values of `Cc1cn([C@H]2C[C@H](OP(O)(=S)OC[C@H]3O[C@@H](n4cnc5c(N)ncnc54)[C@H](O)[C@@H]3OP(O)(=S)OC[C@H]3O[C@@H](n4ccc(N)nc4=O)[C@H](O)[C@@H]3OP(O)(=S)OC[C@H]3O[C@@H](n4ccc(N)nc4=O)[C@H](O)[C@@H]3OP(O)(=S)OC[C@H]3O[C@@H](n4cnc5c(=O)[nH]c(N)nc54)[C@H](O)[C@@H]3OP(O)(=S)OC[C@H]3O[C@@H](n4ccc(N)nc4=O)[C@H](O)[C@@H]3OP(O)(=S)OC[C@H]3O[C@@H](n4cnc5c(=O)[nH]c(N)nc54)[C@H](O)[C@@H]3OP(O)(=S)OC[C@H]3O[C@@H](n4ccc(=O)[nH]c4=O)[C@H](NCCCNCCCCNCCCN)[C@@H]3OP(O)(=S)OC[C@H]3O[C@@H](n4cnc5c(=O)[nH]c(N)nc54)[C@H](O)[C@@H]3OP(O)(=S)OC[C@H]3O[C@@H](n4ccc(N)nc4=O)[C@H](O)[C@@H]3OP(O)(=S)OC[C@H]3O[C@@H](n4cnc5c(=O)[nH]c(N)nc54)[C@H](O)[C@@H]3OP(O)(=S)OC[C@H]3O[C@@H](n4cnc5c(N)ncnc54)[C@H](O)[C@@H]3OP(O)(=S)OC[C@H]3O[C@@H](n4ccc(N)nc4=O)[C@H](O)[C@@H]3OP(O)(=S)OC[C@H]3O[C@@H](n4ccc(N)nc4=O)[C@H](O)[C@@H]3OP(O)(=S)OC[C@H]3O[C@@H](n4ccc(N)nc4=O)[C@H](O)[C@@H]3OP(O)(=S)OC[C@H]3O[C@@H](n4cc(C)c(=O)[nH]c4=O)C[C@@H]3OP(O)(=S)OC[C@H]3O[C@@H](n4ccc(N)nc4=O)[C@H](O)[C@@H]3OP(O)(=S)OC[C@H]3O[C@@H](n4ccc(=O)[nH]c4=O)[C@H](NCCCNCCCCNCCCN)[C@@H]3O)[C@@H](CO)O2)c(=O)[nH]c1=O` (some centres not stated) are 53 °C and 66.8 °C.
In the same order, the values of `Cc1cn([C@H]2C[C@H](OP(=O)(O)OC[C@H]3O[C@@H](n4cnc5c(N)ncnc54)[C@H](O)[C@@H]3OP(=O)(O)OC[C@H]3O[C@@H](n4ccc(N)nc4=O)[C@H](O)[C@@H]3OP(=O)(O)OC[C@H]3O[C@@H](n4ccc(N)nc4=O)[C@H](O)[C@@H]3OP(=O)(O)OC[C@H]3O[C@@H](n4cnc5c(=O)[nH]c(N)nc54)[C@H](O)[C@@H]3OP(=O)(O)OC[C@H]3O[C@@H](n4ccc(N)nc4=O)[C@H](O)[C@@H]3OP(=O)(O)OC[C@H]3O[C@@H](n4cnc5c(=O)[nH]c(N)nc54)[C@H](O)[C@@H]3OP(=O)(O)OC[C@H]3O[C@@H](n4cc(C)c(=O)[nH]c4=O)C[C@@H]3OP(=O)(O)OC[C@H]3O[C@@H](n4cnc5c(=O)[nH]c(N)nc54)[C@H](O)[C@@H]3OP(=O)(O)OC[C@H]3O[C@@H](n4ccc(N)nc4=O)[C@H](O)[C@@H]3OP(=O)(O)OC[C@H]3O[C@@H](n4cnc5c(=O)[nH]c(N)nc54)[C@H](O)[C@@H]3OP(=O)(O)OC[C@H]3O[C@@H](n4cnc5c(N)ncnc54)[C@H](O)[C@@H]3OP(=O)(O)OC[C@H]3O[C@@H](n4ccc(N)nc4=O)[C@H](O)[C@@H]3OP(=O)(O)OC[C@H]3O[C@@H](n4ccc(N)nc4=O)[C@H](O)[C@@H]3OP(=O)(O)OC[C@H]3O[C@@H](n4ccc(N)nc4=O)[C@H](O)[C@@H]3OP(=O)(O)OC[C@H]3O[C@@H](n4cc(C)c(=O)[nH]c4=O)C[C@@H]3OP(=O)(O)OC[C@H]3O[C@@H](n4ccc(N)nc4=O)[C@H](O)[C@@H]3OP(=O)(O)OC[C@H]3O[C@@H](n4ccc(=O)[nH]c4=O)[C@H](NCCCNCCCCNCCCN)[C@@H]3O)[C@@H](CO)O2)c(=O)[nH]c1=O` are 63 °C and 80 °C.
Taken in the same sequence, the figures for `Cc1cn([C@H]2C[C@H](OP(=O)(O)OC[C@H]3O[C@@H](n4cnc5c(N)ncnc54)[C@H](O)[C@@H]3OP(=O)(O)OC[C@H]3O[C@@H](n4ccc(N)nc4=O)[C@H](O)[C@@H]3OP(=O)(O)OC[C@H]3O[C@@H](n4ccc(N)nc4=O)[C@H](O)[C@@H]3OP(=O)(O)OC[C@H]3O[C@@H](n4cnc5c(=O)[nH]c(N)nc54)[C@H](O)[C@@H]3OP(=O)(O)OC[C@H]3O[C@@H](n4ccc(N)nc4=O)[C@H](O)[C@@H]3OP(=O)(O)OC[C@H]3O[C@@H](n4cnc5c(=O)[nH]c(N)nc54)[C@H](O)[C@@H]3OP(=O)(O)OC[C@H]3O[C@@H](n4cc(C)c(=O)[nH]c4=O)C[C@@H]3OP(=O)(O)OC[C@H]3O[C@@H](n4cnc5c(=O)[nH]c(N)nc54)[C@H](O)[C@@H]3OP(=O)(O)OC[C@H]3O[C@@H](n4ccc(N)nc4=O)[C@H](O)[C@@H]3OP(=O)(O)OC[C@H]3O[C@@H](n4cnc5c(=O)[nH]c(N)nc54)[C@H](O)[C@@H]3OP(=O)(O)OC[C@H]3O[C@@H](n4cnc5c(N)ncnc54)[C@H](O)[C@@H]3OP(=O)(O)OC[C@H]3O[C@@H](n4ccc(N)nc4=O)[C@H](O)[C@@H]3OP(=O)(O)OC[C@H]3O[C@@H](n4ccc(N)nc4=O)[C@H](O)[C@@H]3OP(=O)(O)OC[C@H]3O[C@@H](n4ccc(N)nc4=O)[C@H](O)[C@@H]3OP(=O)(O)OC[C@H]3O[C@@H](n4cc(C)c(=O)[nH]c4=O)C[C@@H]3OP(=O)(O)OC[C@H]3O[C@@H](n4ccc(N)nc4=O)[C@H](O)[C@@H]3OP(=O)(O)OC[C@H]3O[C@@H](n4cc(C)c(=O)[nH]c4=O)C[C@@H]3O)[C@@H](CO)O2)c(=O)[nH]c1=O` were 65.3 °C and 79 °C.
With `Cc1cn([C@@H]2O[C@H](COP(=O)(O)O[C@H]3[C@@H](O)[C@H](n4ccc(N)nc4=O)O[C@@H]3COP(=O)(O)O[C@H]3[C@@H](O)[C@H](n4ccc(N)nc4=O)O[C@@H]3COP(=O)(O)O[C@H]3[C@@H](O)[C@H](n4ccc(N)nc4=O)O[C@@H]3COP(=O)(O)O[C@H]3[C@@H](O)[C@H](n4cnc5c(N)ncnc54)O[C@@H]3COP(=O)(O)O[C@H]3[C@@H](O)[C@H](n4cnc5c(=O)[nH]c(N)nc54)O[C@@H]3COP(=O)(O)O[C@H]3[C@@H](O)[C@H](n4ccc(N)nc4=O)O[C@@H]3COP(=O)(O)O[C@H]3[C@@H](O)[C@H](n4cnc5c(=O)[nH]c(N)nc54)O[C@@H]3COP(=O)(O)O[C@H]3[C@@H](NCCCNCCCCNCCCN)[C@H](n4ccc(=O)[nH]c4=O)O[C@@H]3COP(=O)(O)O[C@H]3[C@@H](O)[C@H](n4cnc5c(=O)[nH]c(N)nc54)O[C@@H]3COP(=O)(O)O[C@H]3[C@@H](O)[C@H](n4ccc(N)nc4=O)O[C@@H]3COP(=O)(O)O[C@H]3[C@@H](O)[C@H](n4cnc5c(=O)[nH]c(N)nc54)O[C@@H]3COP(=O)(O)O[C@H]3[C@@H](O)[C@H](n4ccc(N)nc4=O)O[C@@H]3COP(=O)(O)O[C@H]3[C@@H](O)[C@H](n4ccc(N)nc4=O)O[C@@H]3COP(=O)(O)O[C@H]3[C@@H](O)[C@H](n4cnc5c(N)ncnc54)O[C@@H]3COP(=O)(O)O[C@H]3C[C@H](n4cc(C)c(=O)[nH]c4=O)O[C@@H]3CO)[C@@H](OP(=O)(O)OC[C@H]3O[C@@H](n4ccc(N)nc4=O)[C@H](O)[C@@H]3OP(=O)(O)OC[C@H]3O[C@@H](n4ccc(=O)[nH]c4=O)[C@H](NCCCNCCCCNCCCN)[C@@H]3O)[C@H]2NCCCNCCCCNCCCN)c(=O)[nH]c1=O`, the melting temperature (Tm) in the assay with Nucleic Acid [1] came out at 45.8 °C; in the assay on Nucleic Acid [2] it was 70.6 °C.
In the same order, the values of `Cc1cn([C@@H]2O[C@H](CO)CN2c2ncnc3c2ncn3[C@@H]2O[C@H](COP(=O)(O)O[C@H]3[C@@H](O)[C@H](n4cnc5c(=O)[nH]c(N)nc54)O[C@@H]3COP(=O)(O)O[C@H]3[C@@H](O)[C@H](n4ccc(N)nc4=O)O[C@@H]3COP(=O)(O)O[C@H]3[C@@H](O)[C@H](n4cnc5c(=O)[nH]c(N)nc54)O[C@@H]3COP(=O)(O)O[C@H]3C[C@H](n4cc(C)c(=O)[nH]c4=O)O[C@@H]3COP(=O)(O)O[C@H]3[C@@H](O)[C@H](n4cnc5c(=O)[nH]c(N)nc54)O[C@@H]3COP(=O)(O)O[C@H]3[C@@H](O)[C@H](n4ccc(N)nc4=O)O[C@@H]3COP(=O)(O)O[C@H]3[C@@H](O)[C@H](n4cnc5c(=O)[nH]c(N)nc54)O[C@@H]3COP(=O)(O)O[C@H]3[C@@H](O)[C@H](n4ccc(N)nc4=O)O[C@@H]3COP(=O)(O)O[C@H]3[C@@H](O)[C@H](n4ccc(N)nc4=O)O[C@@H]3COP(=O)(O)O[C@H]3[C@@H](O)[C@H](n4cnc5c(N)ncnc54)O[C@@H]3COP(=O)(O)O[C@H]3[C@@H](NCCCNCCCCNCCCN)[C@H](n4ccc(=O)[nH]c4=O)O[C@@H]3CO)[C@@H](OP(=O)(O)OC[C@H]3O[C@@H](n4ccc(N)nc4=O)[C@H](O)[C@@H]3OP(=O)(O)OC[C@H]3O[C@@H](n4ccc(N)nc4=O)[C@H](O)[C@@H]3OP(=O)(O)OC[C@H]3O[C@@H](n4ccc(N)nc4=O)[C@H](O)[C@@H]3OP(=O)(O)OC[C@H]3O[C@@H](n4cc(C)c(=O)[nH]c4=O)C[C@@H]3OP(=O)(O)OC[C@H]3O[C@@H](n4ccc(N)nc4=O)[C@H](O)[C@@H]3OP(=O)(O)OC[C@H]3O[C@@H](n4ccc(=O)[nH]c4=O)[C@H](NCCCNCCCCNCCCN)[C@@H]3O)[C@H]2O)c(=O)[nH]c1=O` are 61.8 °C and 79.7 °C.
